Square brackets hold non-standard residues; d marks the D form. Peptide text beside a SMILES is read from it. * marks the point of attachment. Dolaproine = CO[C@@H]([C@@H]1CCCN1)[C@@H](C)C(=O)O; Dil = CC[C@H](C)[C@H](NC)[C@@H](CC(=O)O)OC; X1 = C[C@@H](N*)[C@@H](O)c1ccccc1; NMeV = CN[C@H](C(=O)O)C(C)C
Key:
[1] = system: thrombin generation (relipidated TF in normal pooled plasma); experiment: Thrombin generation assay (TGA) without antibody pre-incubation; format: biochemical, human; settings: Table 44
Protocol: (§1) The TGA assay was performed using the calibrated-automated-thrombogram (CAT) instrument manufactured and distributed by STAGO. The test method design was equivalent to a standard CAT assay measurement, except that the plasma source was NPP in citrate/CTI. […] Relipidated TF was added to a 96-well assay plate, followed by addition of the antibody/NPP mixture. After a 10-min incubation or directly after combining the relipidated TF with antibody/NPP, thrombin generation was initiated by the addition of calcium and the thrombin substrate. The STAGO software was used to report the following parameters: Peak IIa (highest thrombin concentration generated [nM]); Lag Time (time to IIa generation [min]); ETP (endogenous thrombin potential, area under the curve [nM×min]); and ttPeak (time to Peak IIa [min]).
as §1, with “was normal pooled plasma (NPP)” for “was NPP”, “in citrate supplemented with corn trypsin inhibitor (citrate/CTI).” for “in citrate/CTI.”
(§2) TGA assay was performed using the calibrated-automated-thrombogram (CAT) instrument manufactured and distributed by STAGO (Diagnostica Stago SAS, Asnieres sur Seine, France). […] The anti-TF antibodies were titrated at 0, 10, 50 and 100 nM and mixed with NPP in citrate/CTI. Relipidated TF was added to a 96-well assay plate, followed by addition of the antibody/NPP mixture. After a 10-min incubation or directly after combining the relipidated TF with antibody/NPP, thrombin generation was initiated by the addition of calcium and the thrombin substrate. The STAGO software was used to report the following parameters: Peak IIa (highest thrombin concentration generated on the thrombin generation curve [nM]); Lag Time (time from assay start to the moment 10 nM of thrombin is formed [min]); ETP (endogenous thrombin potential, area under the curve [nM×min]); and ttPeak (time from assay start to Peak IIa [min]). […] As used herein, the term “thrombin generation assay” (TGA) refers to the TGA used in this example.

[2] = system: thrombin generation (relipidated TF in normal pooled plasma); experiment: Thrombin generation assay (TGA) with 10 min antibody pre-incubation; format: biochemical, human
Protocol: as §1
as §1, with “was normal pooled plasma (NPP)” for “was NPP”, “in citrate supplemented with corn trypsin inhibitor (citrate/CTI).” for “in citrate/CTI.”
as §2

[3] = system: HUVECs; experiment: G2/M arrest (phospho-Histone H3) in HUVECs; format: cell-based, human; settings: HCT-116 cells and HUVECs
Protocol: To further understand the resistance of endothelial cells to anti-TF ADCs, cell cycle progression was evaluated 24 h after addition of the cytokines and TF-specific ADCs. Arrest at the G2/M phase of the cell cycle was analyzed as previously described in Theunissen et al, Methods Enzymol, 2006, 409:251-284. Briefly, low-passage HUVECs (Lifeline Cell Technologies, Frederick, MD, USA), propagated in VascuLife VEGF-Mv Endothelial media (Lifeline Cell Technologies), and HCT-116 cells were seeded on 12-well plates. The next day, media was removed and replaced with fresh media (no cytokines) or media containing 5 […] IL1-beta, 25 ng/mL TNF-alpha and 50 ng/mL VEGF (with cytokines). A titration of MMAE-linked ADCs or free MMAE was added to the cells. After 24 h of treatment, cells were fixed in ice-cold 70% ethanol. Subsequently, the cells were washed with flow cytometry buffer (PBS, 1% FBS, 0.1% Triton) and stained for 1 h with a 1:100 dilution of phospho-Histone H3 (Ser10) (D2C8 PE Conjugate, Cell Signaling Technology). After 2 washes, the cells were treated for 20 min with 100 μg/mL PureLink RNAse A (ThermoFisher Scientific), followed by the addition of the viability dye TO-PRO-3 Iodide (ThermoFisher Scientific). 40,000 events were collected on a Novocyte flow cytometer. In the Flowjo data analysis software cell doublets and aneuploid cells were excluded. […]

[4] = system: LPS-induced acute lung injury model, BALB/c mice; experiment: LPS-induced acute lung injury model; format: in vivo, mouse; settings: end of the study; 431D8 1 mg/kg IP; dexamethasone 3 mg/kg IP
Protocol: For this study, 48 male BALB/c mice were randomly and prospectively assigned to five groups: a group of six (n=6), a group of twelve (n=12), and three groups of ten (n=10 per group) animals each. On Day 0, animals in Groups 2-5 were dosed according to Table 63, 60 minutes prior to LPS administration. […] Animals were then released into a recovery cage until they woke up.
All animals were weighed and evaluated for respiratory distress daily (defined as an increase in respiratory rate and/or obvious respiratory effort). Animals with severe respiratory distress, or animals that lost greater than 20% of their total starting body weight, were euthanized within 2 hours of observation.
At 48 hours post-LPS challenge all animals were sacrificed with an overdose of xylazine and bronco-alveolar lavage (BAL) of the right lung only was performed (by tying off the left lung) for total and differential cell counts as well as total protein quantification and cytokine quantitation by Luminex. Lungs were then weighed (total lung weight and right lung weight). The right lung was frozen in liquid nitrogen and stored at −80° C. […] All slides were evaluated by a board-certified veterinary pathologist who used a scoring system to evaluate extent of lung injury and inflammation.

[5] = system: chimeric human-rat TF constructs expressed on HEK293 cells; experiment: Epitope binning, chimeric TF construct mapping (live cell staining assay); format: binding
Protocol: To establish binding of the anti-human TF antibodies to the various TF constructs, HEK293 cells were transfected with a DNA plasmid that co-expresses the TF construct and a green fluorescent protein marker. For a subset of the antibodies, an antibody titration (a 12-point 1:3 dilution series starting at 250 nM) was evaluated on select TF constructs (See international PCT application PCT/US2019/012427 and U.S. utility application Ser. No. 16/959,652, incorporated herein by reference in their entirety). […] Two days after transfection, cells were collected from the tissue culture plate, stained with 15 μg/ml of the indicated anti-TF antibody, washed, stained with anti-human IgG-Fc Alexa Fluor 647 polyclonal antibody, washed, and stained with the viability dye 4′,6-Diamidino-2-Phenylindole, Dihydrochloride. Upon acquisition of 80,000 live events on a flow cytometer, live cells marked with the fluorescent marker were analyzed for the degree of staining by the anti-TF antibody. […] As used herein, the term “live cell staining assay” refers to the antibody binding assay used in this example.
When “Percentage antibody binding to TF construct relative to hTF” in Tables 51 and 52 was less than 50%, the antibody was considered a non-binder (0) in Tables 53 and 54.

[6] = system: DSS-colitis model, C57BL/6 mice; experiment: DSS-colitis model (2.5% DSS); format: in vivo, mouse
Excerpt: In a colitis model, the administration of dextran sulfate sodium (DSS) causes colitis-like pathologies due to toxicity to colonic epithelial cells, which leads to a compromised mucosal function and infiltration of neutrophils, macrophages and lymphocytes. It results in loss of epithelial barrier function, secretion of proinflammatory cytokines and chemokines, and the influx of cells with cytotoxic potential, such as neutrophils and inflammatory macrophages. It is not considered a T-cell-mediated process in the art.
On Day 0 of the study, 8-12 week old male C57BL/6 mice received either sterile water ad libitum (Group 1, n=5) or 2.5% (w/v) DSS dissolved into sterile water ad libitum (Groups 2-5, n=10 mice per group).
On Day 8, all animals received sterile water for the remainder of the experiment and were euthanized on day 10.
Throughout the study clinical observations were made daily. Body weight was measured and recorded daily (from Day 0 to Day 10). Body condition was also evaluated visually daily using the scoring system illustrated in FIG. 2. The stool consistency was determined qualitatively and blood in stool was measured daily using a hemoccult stool bleeding test. […]
Following euthanasia, the animal was measured (length determined) and weighed. Weight/length ratio was calculated for each animal. The animals were dissected and the weight of their spleens was determined. […]

Molecule: 10H10: previously described TF-specific antibody [reference compound]
- ETP ([1]; Ab conc. 10 nM): 2036 nM·min
- ETP ([1]; Ab conc. 50 nM): 1978 nM·min
- ETP ([1]; Ab conc. 100 nM): 1945 nM·min
- ETP ([2]; Ab conc. 10 nM): 1807 nM·min
- ETP ([2]; Ab conc. 50 nM): 1754 nM·min
- ETP ([2]; Ab conc. 100 nM): 1795 nM·min

Molecule: CC[C@H](C)[C@@H]([C@@H](CC(=O)N1CCC[C@H]1[C@H](OC)[C@@H](C)C(=O)N[C@H](C)[C@@H](O)c1ccccc1)OC)N(C)C(=O)[C@@H](NC(=O)[C@@H](NC)C(C)C)C(C)C [MMAE, monomethyl auristatin E] (H-[NMeV]V[Dil][Dolaproine]-X1)
- phosphorylation of histone H3 [3]: increase the phosphorylation of histone H3 to a similar extent in both HCT-116 cells and HUVECs

Molecule: Dexamethasone [reference compound]
- weight loss relative to baseline [4]: about 2%

Molecule: 5G9: previously described TF-specific antibody
- ETP ([1]; Ab conc. 10 nM): 1176 nM·min
- Antibody binding to TF construct ([5]; Table 53, construct rTF): 0 (less than 50%, the antibody was considered a non-binder (0))
- Antibody binding to TF construct ([5]; Table 54, construct rTF): 0 (less than 50%, the antibody was considered a non-binder (0))
- Constructs not bound by antibody ([5]; chimeric human-rat TF constructs): rTF, h1-107_r, h108-219_r, h159-219_r, h159-189_r, h159-174_r, h167-174_r, h190-219_r
- Antibody binding to TF construct ([5]; construct h78-107_r (21), human segment replaced by rat segment): 1 (between 50% and 150%, the antibody was considered a binder (1))
- Antibody binding to TF construct ([5]; construct h108-219_r (46), human segment replaced by rat segment): 0 (less than 50%, the antibody was considered a non-binder (0))
- Antibody binding to TF construct ([5]; construct h159-219_r (27), human segment replaced by rat segment): 0 (less than 50%, the antibody was considered a non-binder (0))
- Antibody binding to TF construct ([5]; construct r141-194_h (rat amino acid segment replaced by human segment, 20 amino acid changes)): 0 (less than 50%, the antibody was considered a non-binder (0))
- Percent antibody binding to TF construct relative to hTF ([5]; construct r141-194_h (rat amino acid segment replaced by human segment, 20 amino acid changes), 15 μg/ml antibody): 32%

Molecule: Cyclosporine [CsA, reference compound]
- body condition score ([6]; after Day 7): most significant deterioration in body condition
- weight loss relative to baseline ([6]; by Day 4, CsA 80 mg/kg once daily oral gavage): ~20%
